From paper PMC4823711, “Allosteric Partial Inhibition of Monomeric Proteases. Sulfated Coumarins Induce Regulation, not just Inhibition, of Thrombin” (Scientific Reports, 2016)
Where “and” joins values, the source holds several entries; their conditions need not be identical. Equal entries are not always repeated.

Key:
Format in all cases: biochemical
[1] = molecular target: T1, thrombin (Homo sapiens, UniProt P00734); assay: Chromogenic substrate hydrolysis assay, thrombin inhibition (Spectrozyme TH); set-up: 6 nM plasma α-thrombin; purchased Haematologic Technologies (Essex Junction, VT); conditions: pH 7.4, 25 °C
Method: (§1) Chromogenic substrate hydrolysis assay was used to measure potency of inhibition, as previously reported. The assay was performed using Flexstation III (Molecular Devices, Sunnyvale, CA) by monitoring substrate hydrolysis at 405 nm. For thrombin and its mutants, 180 μL of buffer (20 mM Tris-HCl, 100 mM NaCl, 2.5 mM CaCl2, 0.1% (polyethylene glycol) PEG 8000, pH 7.4) was added to each well followed by 5 μL of 240 nM thrombin and 10 μL of sulfated coumarin in DMSO to give 0.002 to 250 μM final concentration (or 10 μL of DMSO alone). After incubation for 10 min at 25 °C, 5 μL of 2 mM Spectrozyme TH was added to each well simultaneously and allowed to react for 60 seconds at 25 °C while simultaneously monitoring the reaction to obtain the rate of increase in A405. Identical experimental conditions were used for reactions in the presence of antithrombin, except for 100 nM of antithrombin added prior to the addition of the substrate.
(§2) For factor XIa inhibition studies, 85 μL of buffer (50 mM Tris-HCl, 150 mM NaCl, 0.1% PEG 8000, 0.02% Tween 80, pH 7.4) was added to each well, followed by 7 μL of 15.3 nM enzyme and 3 μL of sulfated coumarin (3.75–500 μM final concentration) and incubated for 10 min at 37 °C. After the incubation period, 5 μL of 6.9 mM S-2366 was added to each well simultaneously and allowed to react for 300 sec at 37 °C. For factor Xa assay, 180 μL of buffer (20 mM Tris-HCl, 100 mM NaCl, 2.5 mM CaCl2, 0.1% PEG 8000, 0.02% Tween 80, pH 7.4) was added to each well followed by 5 μL of 43.5 nM enzyme, 10 μL of sulfated coumarin (0.002–250 μM final concentration). After a 10 min incubation, 5 μL of 5 mM Spectrozyme FXa was added to each well simultaneously and allowed to react for 300 seconds at 37 °C. The slopes generated from each experiment were used to calculate the fractional residual activity (Y) at each concentration of the inhibitor, and analyzed using logistic equation 1, in which YM is the maximum efficacy, Y0 is minimum efficacy and HS is the Hill slope.

[2] = molecular target: T2, thrombin mutant K169A (Homo sapiens, UniProt P00734, K537A); assay: Inhibition of thrombin mutant K169A; conditions: pH 7.4, 25 °C
T2 construct: a group of thrombin mutants containing replacement of either Arg or Lys present in exosite 2 to Ala
Method: as §1

[3] = molecular target: T3, factor XIa (Homo sapiens, UniProt P03951); assay: Chromogenic substrate hydrolysis assay, factor XIa inhibition (S-2366)
T3 construct: antithrombin, factor Xa and factor XIa were from Haematologic Technologies; purchased Haematologic Technologies (Essex Junction, VT); host or cells: human plasma
Method: as §2

[4] = molecular target: T1, thrombin; assay: Michaelis-Menten kinetics of Spectrozyme TH hydrolysis by thrombin; set-up: 6 nM plasma α-thrombin; purchased Haematologic Technologies (Essex Junction, VT); conditions: for VMAX: pH 7.4, 25 °C
Method: Four concentrations (0, 25, 187, and 2500 nM) of 3g were studied in triplicate where 3g was incubated with thrombin for 10 min in buffer (20 mM Tris-HCl, 100 mM NaCl, 2.5 mM CaCl2, 0.1% PEG 8000, pH 7.4) at 25 °C. Spectrozyme TH at various concentrations (0–250 μM) was added at each of the four 3g concentrations and the initial rate of hydrolysis was recorded from the increase in A405 as a function of time. This slope was fitted to the standard Michaelis-Menten equation to derive VMAX and KM of the reaction at each of the 3g concentrations.

[5] = molecular target: T4, thrombin mutant R233A (Homo sapiens, UniProt P00734, R608A); assay: Inhibition of thrombin mutant R233A; conditions: pH 7.4, 25 °C
T4 construct: a group of thrombin mutants containing replacement of either Arg or Lys present in exosite 2 to Ala
Method: as §1

[6] = molecular target: T5, thrombin mutant R93A (Homo sapiens, UniProt P00734, R452A); assay: Inhibition of thrombin mutant R93A
T5 construct: a group of thrombin mutants containing replacement of either Arg or Lys present in exosite 2 to Ala
Method: as §1

[7] = test system: recombinant human thrombins; assay: Inhibition of recombinant thrombins (wild type and exosite 2 mutants, summary statements)
Method: as §1

[8] = molecular target: T6, thrombin mutant K236A (Homo sapiens, UniProt P00734, K611A); assay: Inhibition of thrombin mutant K236A; conditions: pH 7.4, 25 °C
T6 construct: a group of thrombin mutants containing replacement of either Arg or Lys present in exosite 2 to Ala
Method: as §1

T3 sequence (P03951 388-625 limits assumed): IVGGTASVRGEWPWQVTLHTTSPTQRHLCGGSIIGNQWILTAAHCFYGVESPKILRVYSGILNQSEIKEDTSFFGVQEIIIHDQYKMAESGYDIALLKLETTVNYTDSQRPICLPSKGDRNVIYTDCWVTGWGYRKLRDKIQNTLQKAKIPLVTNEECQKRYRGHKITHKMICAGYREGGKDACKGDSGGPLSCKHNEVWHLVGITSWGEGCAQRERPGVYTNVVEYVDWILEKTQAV
T3 sequence (P03951 19-387 limits assumed): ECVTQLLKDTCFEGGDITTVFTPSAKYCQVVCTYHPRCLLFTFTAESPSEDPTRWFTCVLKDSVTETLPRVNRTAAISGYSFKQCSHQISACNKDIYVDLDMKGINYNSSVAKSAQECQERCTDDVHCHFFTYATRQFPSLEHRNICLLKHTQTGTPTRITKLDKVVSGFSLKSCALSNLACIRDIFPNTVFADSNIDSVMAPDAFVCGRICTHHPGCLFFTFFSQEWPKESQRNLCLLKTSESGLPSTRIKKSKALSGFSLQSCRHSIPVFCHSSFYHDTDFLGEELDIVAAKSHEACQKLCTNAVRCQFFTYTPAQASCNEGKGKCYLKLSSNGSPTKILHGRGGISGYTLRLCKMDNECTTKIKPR

SMILES: O=c1oc2cc(OCCCCn3cc(COc4ccc(-c5c(-c6ccccc6)c6cc(Cl)cc(Cl)c6oc5=O)cc4)nn3)ccc2c(-c2ccccc2)c1-c1ccc(OS(=O)(=O)O)cc1 [3g]
- Hill slope (HS) of thrombin inhibition [1]: 1.2
- efficacy of thrombin inhibition (ΔY) ([1]; at saturation): 47% and 50%
- IC50 ([1]; read-out: IC50 against thrombin): 180 nM
- HS [2]: 7.6
- IC50 [2]: 494 ± 50 nM
- ΔY [2]: 38 ± 3%
- selectivity for thrombin in comparison to factor XIa [3]: ~ 150 fold
- IC50 ([3]; pH 7.4, 37 °C, read-out: IC50 against factor XIa): > 30000 nM
- VMAX ([4]; [3g] 25 nM): 52.4 ± 1.5 mAU/min
- VMAX ([4]; [3g] 187 nM): 45.3 ± 1.1 mAU/min
- VMAX ([4]; [3g] 2500 nM): 31.0 ± 0.9 mAU/min and 31.0 mAU/min
- reduction of VMAX ([4]; at saturating levels of 3g): ≤ 50%
- HS [5]: 2.0
- IC50 [5]: 359 ± 70 nM
- ΔY [5]: 33 ± 4%
- increase of inhibition potency in comparison to recombinant wild-type thrombin ([6]; R93A mutant): 2.3 fold
- HS ([6]; R93A, pH 7.4, 25 °C): 1.3
- IC50 ([6]; R93A, pH 7.4, 25 °C): 154 ± 20 nM
- ΔY ([6]; R93A, pH 7.4, 25 °C): 51 ± 2%
- increase of IC50 in comparison to recombinant wild-type thrombin ([7]; mutants K236A, K235A, R173A and K169A): < 1.4 fold
- maximal inhibition efficacies ([7]; range over all recombinant thrombins studied): 28 to 64%
- HS [8]: 2.6
- IC50 [8]: 525 ± 70 nM
- ΔY [8]: 64 ± 4%
